# Values quoted from earlier work, collected in US20100227313A1, “Methods and Compositions for Determining Altered Susceptibility of HIV-1 to Protease Inhibitor Treatment” (priority 2007, published 2010).
# System: HIV protease
# Conditions: 2006, cited from earlier work
smiles,measurement,setting,value
"CC(C)CN(C[C@@H](O)[C@H](Cc1ccccc1)NC(=O)O[C@H]1CCOC1)S(=O)(=O)c1ccc(N)cc1 [APV, amprenavir]",effect of I47A mutation on susceptibility,"I47A, de Mendoza et al.",reduced susceptibility
same,effect of L33F mutation in protease on susceptibility,"L33F, Kozal et al.",correlate with resistance
